{
  "source": "patent EP0942741B1",
  "about": "“LECTIN COMPOSITIONS AND USES THEREOF” (Alizyme Therapeutics Limited, priority 1996, dated 1997)",
  "key": {"[1]": {"experiment": "Dose range of PHA pre-dosing against 5-FU damage of the gastrointestinal tract (Example 8)", "assay_type": "in vivo, rats", "conditions": "pair fed, 150 mg/kg/BW 5-FU, day 9", "protocol": "(§1) 300mg of 5-fluorouracil was stirred in 14ml of distilled water. 1M NaOH was added slowly until the 5-FU had dissolved. The solution was made up to a final volume of 20 ml. The final pH of the solution was 8.3. A dose of 150 mg/kg body weight was administered to the animal by intraperitoneal injection. Immediately after the injection, the rats were offered 15 g of the control diet and food was available ad-libitum for the remainder of the experiment.\n3 groups of rats (5 rats per group) were fed on the standard diet (Table 1) and gavaged daily with either 200, 100 & 50 mg/kg/day PHA for 3 days. The food intake for each rat was recorded daily. A second set of 3 control groups of rats (5 rats per group) were fed on the standard diet and gavaged daily with 1 ml saline for 3 days. Each animal of the control group was pair fed to an animal in the PHA dosed groups. On the morning of the 4th day, each animal was injected with 150 mg/kg bodyweight 5-FU and then fed the standard diet for 6 days. 2 rats were fed on the standard diet ad libitum for 9 days. On the 9th day, the rats were killed and the animals dissected. After freezing in liquid nitrogen, the wet tissue weights were recorded."}, "[2]": {"experiment": "Protection of rats from 5-FU chemotherapy by oral PHA (Example 7)", "assay_type": "in vivo", "protocol": "as §1\nFour groups, each consisting of 5 rats were maintained on a precise dietary regime for a period of 7 days (Table 11).\nRats (approx […]) pre-dosed with PHA were offered 10 g of the control diet (Table 1) containing 10% lactalbumin. Each animal was given the equivalent of 20 mg PHA in 0.9% saline by gavage. Rats were offered control diet in two feeds at 1000 & 1700 hours. The amount of food given was strictly paired to the amount of diet eaten by the PHA pre-dosed animals. If the animals were immediately post-dosed with PHA, the lectin was administered two hours post 5-FU injection by gavage. Animals neither pre- or post dosed with PHA were administered with 1 ml 0.9% saline by gavage. After 3 days, animals in three of the groups were administered a dose of 150 mg/kg body weight 5-FU. Body weight of each animal was recorded daily and the average body weight calculated.\nAt the end of the experiment, the animals were sacrificed and then dissected. The dry weights of the major organs were recorded for each animal and the average weights calcurated.\nAfter 7 days, blood was collected from the animals and both the key molecular and cellular components were analysed."}, "[3]": {"conditions": "Paired control 50 mg/kg/day: saline gavage"}, "[4]": {"conditions": "Paired control 100 mg/kg/day: saline gavage"}, "[5]": {"conditions": "Paired control 200 mg/kg/day: saline gavage"}, "[6]": {"conditions": "Treatment 2: LA 3d, inject 5-FU (150 mg/kg i.p.), LA 4d, after 7 days"}, "[7]": {"conditions": "Treatment 2: LA 3d, inject 5-FU (150 mg/kg i.p.), LA 4d, blood after 7 days"}},
  "data": [
    {"compound": "O=c1[nH]cc(F)c(=O)[nH]1", "note": "[5-FU, 5-fluorouracil]", "values": [
      {"measurement": "Heum wet weight", "setting": "[1]; [3]", "result": 722, "unit": "mg"},
      {"measurement": "Jejunum wet weight", "setting": "[1]; [3]", "result": 761, "unit": "mg"},
      {"measurement": "Heum wet weight", "setting": "[1]; [4]", "result": 747, "unit": "mg"},
      {"measurement": "Jejunum wet weight", "setting": "[1]; [4]", "result": 783, "unit": "mg"},
      {"measurement": "Heum wet weight", "setting": "[1]; [5]", "result": 753, "unit": "mg"},
      {"measurement": "Jejunum wet weight", "setting": "[1]; [5]", "result": 848, "unit": "mg"},
      {"measurement": "Caecum average dry weight", "setting": "[2]; [6]", "result": "99 ± 11", "unit": "mg"},
      {"measurement": "Colon average dry weight", "setting": "[2]; [6]", "result": "130 ± 11", "unit": "mg"},
      {"measurement": "Ileum average dry weight", "setting": "[2]; [6]", "result": "94 ± 11", "unit": "mg"},
      {"measurement": "Jejunum average dry weight", "setting": "[2]; [6]", "result": "90 ± 8", "unit": "mg"},
      {"measurement": "Small intestine average dry weight", "setting": "[2]; [6]", "result": "509 ± 55", "unit": "mg"},
      {"measurement": "Stomach average dry weight", "setting": "[2]; [6]", "result": "140 ± 7", "unit": "mg"},
      {"measurement": "HGB", "setting": "[2]; [7]", "result": 12.7, "unit": "g/100ml"},
      {"measurement": "MCH", "setting": "[2]; [7]", "result": 17.3, "unit": "pg"},
      {"measurement": "MCHC", "setting": "[2]; [7]", "result": 34.3, "unit": "g/100ml"},
      {"measurement": "MCV", "setting": "[2]; [7]", "result": 50.4, "unit": "µm^3"},
      {"measurement": "PLT", "setting": "[2]; [7]", "result": "274x10^3 no/mm^3"},
      {"measurement": "WBC", "setting": "[2]; [7]", "result": "3x10^3 no/mm^3"},
      {"measurement": "fresh body weight", "setting": "[2]; Treatment 2: LA 3d, inject 5-FU (150 mg/kg i.p.), LA 4d, column 1 of 8 (day not given)", "result": 102.5, "unit": "g"},
      {"measurement": "fresh body weight", "setting": "[2]; Treatment 2: LA 3d, inject 5-FU (150 mg/kg i.p.), LA 4d, column 2 of 8 (day not given)", "result": 99.9, "unit": "g"},
      {"measurement": "fresh body weight", "setting": "[2]; Treatment 2: LA 3d, inject 5-FU (150 mg/kg i.p.), LA 4d, column 3 of 8 (day not given)", "result": 98.8, "unit": "g"},
      {"measurement": "fresh body weight", "setting": "[2]; Treatment 2: LA 3d, inject 5-FU (150 mg/kg i.p.), LA 4d, column 4 of 8 (day not given)", "result": 101.9, "unit": "g"},
      {"measurement": "fresh body weight", "setting": "[2]; Treatment 2: LA 3d, inject 5-FU (150 mg/kg i.p.), LA 4d, column 5 of 8 (day not given)", "result": 108, "unit": "g"},
      {"measurement": "fresh body weight", "setting": "[2]; Treatment 2: LA 3d, inject 5-FU (150 mg/kg i.p.), LA 4d, column 6 of 8 (day not given)", "result": 110.2, "unit": "g"},
      {"measurement": "fresh body weight", "setting": "[2]; Treatment 2: LA 3d, inject 5-FU (150 mg/kg i.p.), LA 4d, column 7 of 8 (day not given)", "result": 107.9, "unit": "g"},
      {"measurement": "fresh body weight", "setting": "[2]; Treatment 2: LA 3d, inject 5-FU (150 mg/kg i.p.), LA 4d, column 8 of 8 (day not given)", "result": 106.2, "unit": "g"},
      {"measurement": "daily food intake", "setting": "[2]; Treatment 2: LA 3d, inject 5-FU (150 mg/kg i.p.), LA 4d, day 1 (pair fed, before injection)", "result": 4.8, "unit": "g"},
      {"measurement": "daily food intake", "setting": "[2]; Treatment 2: LA 3d, inject 5-FU (150 mg/kg i.p.), LA 4d, day 2 (pair fed, before injection)", "result": 6.22, "unit": "g"},
      {"measurement": "daily food intake", "setting": "[2]; Treatment 2: LA 3d, inject 5-FU (150 mg/kg i.p.), LA 4d, day 3 (pair fed, before injection)", "result": 9.22, "unit": "g"},
      {"measurement": "daily food intake", "setting": "[2]; Treatment 2: LA 3d, inject 5-FU (150 mg/kg i.p.), LA 4d, day 4", "result": 11.3, "unit": "g"},
      {"measurement": "daily food intake", "setting": "[2]; Treatment 2: LA 3d, inject 5-FU (150 mg/kg i.p.), LA 4d, day 5", "result": 10.4, "unit": "g"},
      {"measurement": "daily food intake", "setting": "[2]; Treatment 2: LA 3d, inject 5-FU (150 mg/kg i.p.), LA 4d, day 6", "result": 6.8, "unit": "g"},
      {"measurement": "daily food intake", "setting": "[2]; Treatment 2: LA 3d, inject 5-FU (150 mg/kg i.p.), LA 4d, day 7", "result": 5.9, "unit": "g"},
      {"measurement": "reduction of small intestine dry weight", "setting": "[2]; only lactalbumin in the diet, 5-FU 150 mg/kg", "result": "~50", "unit": "%"}
    ]}
  ]
}
